# Reference: patent US20150353515A1, “Novel analogs of resveratrol” (priority 2014, published 2015)
# Columns and labels:
# [1] = tested on: human umbilical vein endothelial cells (HUVECs) co-cultured with normal human dermal fibroblasts (NHDF); test: Anti-angiogenesis: capillary-tube formation assay (Kurabo angiogenesis kit); assay type: cell-based; settings: HUVEC tube formation inhibition, HUVEC/NHDF co-culture, 11 d, 1-100 μM
# Procedure: Capillary-tube formation was assayed using the angiogenesis kits (Kurabo, Okayama, Japan) according to the manufacturer's instruction. Briefly, human umbilical vein endothelial cells (HUVECs) co-cultured with normal human dermal fibroblasts (NHDF), which a cultural kit originally developed by Kurabo Co. Ltd., Okayama, Japan, onto 24-well plate were incubated either with or without test compounds and resveratrol respectively at appropriate concentrations (1-100 μM) for 11 d (media replacement was performed at d 1, 4, 7, and 9). The cells were thereafter fixed with 70% cold ethanol, incubated with mouse antihuman CD31 antibody followed by incubation with an alkaline phosphatase conjugate goat antimouse antibody, and then stained with 5-bromo-4-chloro-3-indolyl phosphate/nitro blue tetrazolium to visualize tube network at d-11, respectively. In each assay, randomly selected five fields of view in each well were captured by digital camera under the light microscopy on ×40 magnification. The analysis of tube formation was then carried out by measuring total area and length of tubes per well using analytical software (by Kurabo).
# [2] = tested on: RAW 264.7 macrophage cell line (LPS-stimulated NO production); test: Nitric oxide inhibition: nitrite quantification with Griess reagent in LPS-stimulated macrophage cells; assay type: cell-based, mouse; settings: nitrite in supernatant of LPS (100 ng/ml)-stimulated RAW 264.7 cells, 24 h, lowest tested concentration 25 μM
# Source text: The mouse BALB/c macrophage cell line, RAW 264.7 BCRC No. 60001 (identical to ATCC number TIB-71), was obtained from Bioresource Collection and Research Center, Taiwan. The cells were maintained according to the protocols being cultured in 50 cm^2 plastic flasks (Nunc, Roskilde, Denmark) with the medium renewed every 3 days. LPS (from Escherichia coli, serotype 0127:B8), trypan blue and all the other chemicals, unless otherwise specified, were purchased from Aldrich-Sigma Chemical Company (St. Louis, Mo., USA).
# The cells were cultured with or without a pretreatment by the test compounds and resveratrol of 25, 50, 100, and up to 200 μM as already described. Each value is the mean±SEM of three determinations. *p<0.05, each value was compared with or without the LPS-stimulated group.
# The production of NO was determined by measuring the accumulated level of nitrite in the culture supernatant with the Griess reagent in LPS-stimulated macrophage cells. A quantity of 100 μl of a sample aliquot were mixed with 100 μl of the Griess reagent (0.1% N-(1-naphthyl)ethylenediamine, 1% sulfanilamide, and 2.5% phosphoric acid) in a 96-well plate and then incubated at 25° C. for 10 min. The absorbance at 550 nm was measured with an ELISA reader (MR 700, Dynatech Laboratories, Alexandria, Va., USA). NaNO2 was used as the standard to calculate the nitrite concentration.
# [3] = tested on: λ-carrageenan-induced paw edema in Wistar rats; test: In-vivo carrageenan-induced paw edema study; settings: rat, 20 mg/kg i.p. single dose in CMC, 5 h after carrageenan
# Procedure: In this study, X-carrageenan was used to stimulate the inflammation on the rear footpad of the rats. Male albino Wistar rats (183-218 g) 4 to 6 weeks old were housed and cared under the guidelines of the Institutional Animal Care and Use Committee at the National Defense Medical Center, Taiwan. The rats were assigned to groups. For each group, 3 rats were used and marked on the tails. one of them being the control. In order to induce inflammation, 50 μl of a 1% λ-carrageenan solution in normal saline was injected into the right hind paw subplantar tissue. The development of paw edema was measured plethysmographically (Basile 7140 plethysmometer, Ugo, Varese, Italy) and recorded prior to this administration. […] Before carrageenan treatment, the volume of each […] footpad was measured (V0). […] After the λ-carrageenan challenge, each paw volume (ml) was measured hourly up to 5 h. The percentage of paw edema and the inhibition of inflammation were calculated. Edema rate (E %) was calculated as follows: E%=(Vt-V0)/V0×100; V0: volume of hind paw before 1% λ-carrageenan administration; Vt: volume of hind paw after 1% carrageenan administration at t h. Percentage of inhibition (1%) was determined as follows: 1%(Ec-Et)/Ec×100; Ec: edema rate of control group; Et: edema rate of the respective test compound at t h. […]
Compound,IC50 [1],IC50 [2],Percentage of inhibition of paw edema [3],paw edema (increase of paw volume) ([3]; p<0.05),"IC50 ([1]; Homo sapiens, 264 h)","IC50 ([2]; Mus musculus, RAW264.7)"
"CC[n+]1c(/C=C/c2ccc(O)c(OC)c2)sc2ccccc21 [Compound 6, N-Ethyl-2-[(E)-2-(4′-hydroxy-3′-methoxyphenyl)vinyl]benzothiazolium bromide]",19.9 ± 2.3 µM,< 25 µM,–,–,–,–
"CC[n+]1c(/C=C/c2ccc(OC)cc2O)sc2ccccc21 [Compound 3, N-Ethyl-2-[(E)-2-(2′-hydroxy-4′-methoxyphenyl)vinyl]benzothiazolium bromide]",31.2 ± 2 µM,< 25 µM,–,–,–,–
"N-Ethyl-2-[(E)-2-(3′,4′,5′-trimethoxyphenyl)vinyl]benzothiazolium bromide [Compound 4]",18.8 ± 1.3 µM,< 25 µM,69.5%,0.21 ± 0.06 mL,–,–
"Oc1ccc(/C=C/c2cc(O)cc(O)c2)cc1 [Resveratrol (1), 3,5,4′-trihydroxy-trans-stilbene, reference compound]",–,–,–,–,47.7 ± 1.1 µM,40 µM
"CC[n+]1c(/C=C/c2cc(OC)c(O)c(OC)c2)sc2ccccc21 [Compound 5, N-Ethyl-2-[(E)-2-(3′,5′-dimethoxy-4′-hydroxyphenyl)vinyl]benzothiazolium bromide]",21.2 ± 1.6 µM,< 25 µM,–,–,–,–
